Reference: PubChem BioAssay (NCI)
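Interpolation was linear, between the two tested concentrations surrounding the appropriate level; five concentrations were tested over 48 hours in 96-well plates. The concentration for full growth arrest is given as TGI.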

Tests used:
Experiment in all cases: NCI tumour cell line growth inhibition, 48 h
786-0 renal = system: 786-0 renal
MDA-MB-231 breast = system: MDA-MB-231 breast
MDA-MB-435 = system: MDA-MB-435
NCI-H23 lung = system: NCI-H23 lung
NCI-H522 lung = system: NCI-H522 lung
NCI/ADR-RES ovarian = system: NCI/ADR-RES ovarian
PC-3 prostate = system: PC-3 prostate
SK-MEL-28 melanoma = system: SK-MEL-28 melanoma
SK-MEL-5 melanoma = system: SK-MEL-5 melanoma
UACC-62 melanoma = system: UACC-62 melanoma

SMILES	TGI (786-0 renal) [µM]	TGI (MDA-MB-231 breast) [µM]	TGI (MDA-MB-435) [µM]	TGI (NCI-H23 lung) [µM]	TGI (NCI-H522 lung) [µM]	TGI (NCI/ADR-RES ovarian) [µM]	TGI (PC-3 prostate) [µM]	TGI (SK-MEL-28 melanoma) [µM]	TGI (SK-MEL-5 melanoma) [µM]	TGI (UACC-62 melanoma) [µM]
O=C(O)c1ccc(Nc2nc3cc(C(F)(F)F)ccc3n3cccc23)cc1	65.5	49.8	> 100	> 100	53.8	> 100	93.5	> 100	38.8	77.8
O=S(=O)(O)c1ccc2c(N=Nc3ccc(Cl)cc3)c(O)ccc2c1	> 100	> 100	> 100	> 100	> 100	> 100	> 100	> 100	> 100	> 100
CC(C)(C)OC(=O)Cn1ncn(NC(=O)Cc2ccccc2)c1=O	> 10	> 10	> 10	> 10	> 10	> 10	> 10	> 10	> 10	> 10
Cc1cccc(C)c1Nc1nc(C)c(C(=O)CC(=O)C(=O)Nc2c(C(C)C)cccc2C(C)C)s1	> 100	> 100	> 100	> 100	> 100	> 100	> 100	> 100	> 100	> 100
CC(C)(C)C1=CC(=C2C=Cc3ccccc3O2)C=C(C(C)(C)C)C1=O	9.55	11.1	5.11	30.8	17.8	14.8	16.2	22.2	13.9	8.04
CCOC(=O)c1c(N2CCCC2)ncn(C)c1=S	> 100	> 100	> 100	> 100	> 100	> 100	> 100	> 100	> 100	> 100
CC(C)/C(=N\[N+](C)(C)C)c1ccccc1	> 100	> 100	> 100	> 100	> 100	> 100	> 100	> 100	> 100	> 100
COc1c2c(cc3c1C1(O)Cc4ccc5c(c4C[N+]1(C)CC3)OCO5)OCO2 (stereo not given)	> 100	> 100	> 100	> 100	> 100	> 100	> 100	> 100	> 100	> 100
COC(=O)/C=C\C(C#N)(C#N)N=Cc1sccc1C	4.34	1.93	9.84	25.3	1.67	32.7	19.8	20.1	4.78	17
CCOC(=O)C(O)(C(=O)OCC)c1cc(C(C)(C)C)c(O)c(C(C)(C)C)c1	> 100	> 100	> 100	> 100	> 100	> 100	> 100	> 100	32.9	> 100
CSc1c(CC(=O)Nc2ccc(Cl)cc2)n(Cc2ccccc2)c2ccccc12	30.3	39.3	> 100	> 100	> 100	> 100	27.7	> 100	> 100	> 100
Cc1ccc2oc3c(c(Br)c(Br)n3C)c(=O)c2c1	30.3	43.5	> 100	46.3	> 100	52.5	> 100	> 100	> 100	52.3
O=[N+]([O-])/C(C(Cl)=C(Cl)Cl)=C(\N1CCCCC1)n1nnc2ccccc21	33.5	34.5	> 100	38.8	40	> 81.1	32.8	48.3	32.7	36.7
O=C(NNS(=O)(=O)c1ccccc1)c1cccnc1	> 100	> 100	> 100	> 100	> 100	> 100	> 100	> 100	> 100	> 100
COc1cccc2cc(C(C)=O)c(=O)oc12	> 100	> 100	> 100	> 100	> 100	> 100	> 100	> 100	> 100	> 100
O=C(Nc1cccc2ccccc12)c1ccccc1	> 100	> 100	> 100	> 100	> 100	> 100	> 100	> 100	> 100	> 100
CC1(C)CCCCCC(C)(CCCO)C1=O (stereo not given)	> 100	> 100	> 100	> 100	> 100	> 100	> 100	> 100	> 100	> 100

SMILES	TGI (786-0 renal) [µM]	TGI (MDA-MB-231 breast) [µM]	TGI (MDA-MB-435) [µM]	TGI (NCI-H23 lung) [µM]	TGI (NCI-H522 lung) [µM]	TGI (NCI/ADR-RES ovarian) [µM]	TGI (PC-3 prostate) [µM]	TGI (SK-MEL-28 melanoma) [µM]	TGI (SK-MEL-5 melanoma) [µM]	TGI (UACC-62 melanoma) [µM]
O=C(Nc1sccc1S(=O)(=O)c1ccccc1)c1ccccc1	> 100	> 100	> 100	> 100	> 100	> 100	> 100	> 100	> 100	> 100
COc1ccc(-n2c(=O)n(-c3ccccc3)c(=O)n2-c2ccc(OC)cc2)cc1	> 100	> 100	> 100	> 100	> 100	> 100	> 100	> 100	> 100	> 100
NC1Cc2ccccc2OC1=O (stereo not given)	> 100	> 100	> 100	> 100	> 100	> 100	> 100	> 100	> 100	> 100
CC1CN=C(c2cccc(-c3nc(-c4cccc(C5=NCC(C)N5)c4)nc(N(C)C)n3)c2)N1 (stereo not given)	5.67	3.48	2.61	7.77	2.51	35.9	3.31	13.2	7.93	3.83
CC/C=C/C[C@H](O)[C@H]1C[C@H]2O[C@H](CC(=O)OC)C[C@H]2O1	> 100	> 100	> 100	> 100	> 100	> 100	> 100	> 100	> 100	> 100
C=CCc1cc(C(Cc2ccccc2)NC(C)C)cc(OCc2ccccc2)c1OCc1ccccc1 (stereo not given)	30.7	28.3	29.2	33.8	28.8	30.7	28.8	30.2	30.6	28.4
CCC(O)c1ccc(N=Cc2ccccc2O)cc1 (stereo not given)	> 100	> 100	> 100	> 100	> 100	> 100	> 100	> 100	> 100	> 100
CC(C)(C)OC(=O)CN1CCN(CC(=O)N2CCN(C(=O)OCc3ccccc3)CC2)CCN(CC(=O)OC(C)(C)C)CCN(CC(=O)N2CCN(C(=O)OCc3ccccc3)CC2)CC1	7.42	5.01	7.36	12.5	2.87	34.4	12.5	16.2	3.92	7.59
O=S(=O)(/N=C(\NO)Nc1ccc(Cl)cc1)c1ccccc1	16.9	> 100	> 64	> 100	5.38	60.3	37.3	33.9	21.8	36.9
COc1ccc2c3c1OC1C34CCN(C)C(C2)C4=CC(I)C1(OC)OC (stereo not given)	14	36	15.5	21.1	15.3	> 100	23.2	25.9	25.6	28
COc1ccccc1NCc1cccc2c(=O)c3ccc(Cl)cc3oc12	> 100	> 100	> 100	> 100	> 100	> 100	> 100	> 100	> 100	> 100
CCN(CC)CCCNc1[nH]ncc2c(C)c3nc4ccc(OC)cc4c3cc12	2.28	2.65	2.46	1.97	0.639	> 100	1.73	2.01	2.83	2.74
C=CCCCCOC1C=CC(O)C(CO)O1 (stereo not given)	> 100	> 100	> 100	> 100	> 100	> 100	> 100	> 100	> 100	> 100
COc1nc2c(c(=O)n1C)N=C(c1ccc(Cl)cc1)CC(c1ccccc1)N2 (stereo not given)	> 100	53.7	> 100	69.1	44.9	> 100	> 100	> 100	38.2	37.6
COP(=O)(OC)/C(=C/c1cn(C(c2ccccc2)(c2ccccc2)c2ccccc2)cn1)NC=O	> 100	33.5	40.1	41.2	41.2	> 100	> 100	93.6	27.5	41.3
COc1cc(NC=C2C(=O)OC(C)(C)OC2=O)c(OC)c(C)c1OC	> 100	> 100	> 100	> 100	> 100	> 100	> 100	> 100	> 100	> 100
Cc1ccc(S(=O)(=O)N/N=C2/CC3CCC4CC2CC34)cc1 (stereo not given)	> 100	> 100	> 100	> 100	> 100	> 100	> 100	> 100	> 100	> 100
